Experimental findings from patent US8440617B2, “Hyperbaric treatment in wound healing” (The Trustees of the University of Pennsylvania, priority 2007, dated 2013) are described below.

“Also recorded” adds a separate entry of the source.

Common to all, as to format: in vivo, mouse
For assay [1], the system named is diabetic cutaneous wounds. Put plainly: Peripheral wound healing (wound closure) in diabetic mice. The protocol:
Tie2-GFP, wild-type or chimeric FVB mice at 6-12 wk of age were treated with STZ (Sigma-Aldrich) to induce diabetes. Mice were rendered diabetic by i.p. administration of 60 mg/kg STZ in 50 mM sodium citrate, pH 4.5, daily for 5 d. Control mice were treated with daily injections of citrate buffer. Serum glucose was measured from the mouse tail vein using a glucometer. Once serum glucose reached 250 mg/dL, mice were followed with daily measurements for 1 wk prior to use in experiments. Serum glucose levels in STZ mice averaged 461 mg/dL with a range of 372-520 mg/dL, while control mice serum glucose mean level was 120 mg/dL with a range of 94-135 mg/dL. Wounds were induced on the ventral surface of the mouse thigh using a 4 mm punch biopsy. Full-thickness skin was removed, exposing the underlying muscle.
Initial wound surface area was recorded and wounds were then followed serially with daily digital photographs using an Olympus digital camera. Photographs contained an internal scale to allow for standard calibration of measurements. Wound area was quantified using ImageJ software. Wound area was expressed as the percentage of original wound size. Wounds were followed for 6 d and mice were sacrificed at the conclusion of the experiment.
EPCs play a key role in vasculogenesis and cutaneous tissue repair. It was hypothesized that increased numbers of EPCs in circulation, along with enhanced EPC homing to wounds, results in improved wound healing in diabetes. Diabetic wound closure rates were studied, in response to treatment with HBO and SDF-1α alone and in combination. Wounded diabetic mice underwent daily wound injections with SDF-1α, PBS, HBO, or SDF-1α+HBO treatments. […] This healing response was greater than the response to either treatment modality alone. In addition, histochemical analysis was conducted to examine blood vessel density (VEGFR2 staining), cellularity and stromagenesis (H&E staining), and extracellular constitution (trichrome staining) in wound tissues. […]

The test system of assay [2] is NO synthesis in bone marrow (NOS). The experiment in a line: Real-time bone marrow NO measurement with NO microelectrode during HBO. Particulars: diabetic mice, insulin 6 U/kg twice/d i.p. The protocol: For HBO treatment, mice were placed in an animal hyperbaric chamber (Reneau Corp.) and subjected to 100% oxygen at 2.4 atmospheres absolute (ATA) for 90 min (Davis Wound Healing Protocol). To measure continuous, real-time BM NO levels, NO microelectrodes was inserted into the femoral marrow cavity as previously described. An osteotomy was created on the patellar surface of the murine femur using a 25 G beveled needle, allowing the electrode to be lowered into the marrow space when the animal was placed in the hyperbaric chamber. In some mice, pretreatment with L-NAME (40 mg/kg i.p.) (Sigma-Aldrich) was given 2 h prior to exposure to HBO.
In early studies, it was hypothesized that HBO2 augments stem cell mobilization because it stimulates •NO synthesis in the bone marrow, as •NO is known to play a central role with stem cell release from bone marrow. […] Mice were placed in a hyperbaric chamber where, while breathing air, baseline measurements were obtained. The chamber was then flushed with 100% O2 and compressed to 2.4 ATA O2.
Physiologically, the NO-mediated EPC release into circulation occurs in response to tissue-level hypoxia, although this compensatory response is inadequate in the setting of diabetes and results in severe defects in neovascularization and wound healing. […] Therefore, it was sought to utilize HBO as a tool to augment EPC release into circulation and further study both EPC mobilization and wound-homing mechanisms in the presence of diabetes. The goal was to determine whether hyperoxia stimulates NO production in the BM of diabetic mice via a NOS-mediated pathway and whether this pathway is impaired in diabetes. To test this hypothesis, Nafion polymer—coated NO microsensors were inserted into the femur BM space of both STZ induced diabetic and nondiabetic mice to measure real-time NO levels within the BM prior to and is during HBO-induced hyperoxia. […] It was speculated, that this was likely due to a compensatory effect from other NOS isoforms, and therefore the level of both iNOS and nNOS was examined in diabetic mice. […] However, no observation was made of any changes in the phosphorylation of these NOS isoforms.

The subject of assay [3] is SDF-1α in wound tissue. The experiment in a line: Wound SDF-1α level (immunostaining). The note with it: diabetic mice treated with insulin. The text has this:
For immunostaining, paraffin embedded serial sections (5 μm) were first underwent standard deparaffinizing and rehydration procedures and then probed with various Abs. To assess wound SDF-1α^+ cells, sections were double-stained with HTC-conjugated anti-SDF-1α and PE-conjugated different tissue-specific Abs (eBiosciences). To detect blood vessels in wound, sections were stained with HTC-conjugated anti-VEGFR2Ab. For examination of wound EPC recruitment in BM transplantation experiment, sections were double-stained with FITC-GFP and PE-VEGFR2 (BD Biosciences). Nuclei were counterstained with Hoescht dye. Masson's trichrome staining and H&E staining were performed using standard method and all reagents were from Sigma-Aldrich. Tissue sections were analyzed using fluorescence microscopy and ImageJ (NIH) software to quantitate fluorescent intensity. In trichrome stained slides, blue stain (collagen content) was also quantitatively analyzed by ImageJ.

As for “insulin: human insulin (NPH), 6 U/kg twice/d i.p.”, the “wound healing rate, insulin combined with HBO+SDF-1α therapy” value in assay [1] (diabetic mice) is “did not further accelerate”. Moreover, in assay [1] (diabetic mice treated with insulin 6 U/kg twice/d i.p.), the wound healing rates result is listed as “failed to improve; also recorded: Little effect”. Moreover, the “reversal of impaired BM NO production” value is given as “little effect” in assay [2] and “did not reverse” in assay [2] (listed as Insulin). Also, the “impaired wound SDF-1α production” value in assay [3] was “failed to improve”.
